{"source": "patent US20090317474A1", "about": "“USE OF POLYETHYLENE GLYCOL IN INFLAMMATION RELATED TOPICAL DISORDERS OR DISEASES AND WOUND HEALING” (Flen Pharma N.V., priority 2006, published 2009)", "key": {"proMMP-9": {"system": "proMMP-9", "test": "proMMP-9 secretion by J774 macrophages challenged with heat inactivated E. coli", "type": "cell-based, murine", "procedure": "Macrophage cells were pre-conditioned for 30 min. with varying concentrations of PEG400 (0.31-10% w/w) and then challenged with heat inactivated E. coli bacteria. Next, cells were further incubated overnight. The supernatant of cells was analyzed for proMMP-9 according to the manufacturer's indications (R&D systems, Abingdon, UK)."}, "VEGF [1]": {"system": "VEGF", "test": "VEGF expression by fibroblasts (ELISA)", "type": "cell-based, murine", "settings": "overnight"}, "IL-6 [2]": {"system": "IL-6", "test": "IL-6 expression by J774 macrophages after heat inactivated E. coli stimulation", "type": "cell-based, murine", "settings": "J774 cells, with vs without PEG", "procedure": "The cells were cultured with or without PEG (PEG600 diacid) The expression of IL-6 is lowered by about 30% when PEG is added."}, "pro-MMP9": {"system": "pro-MMP9", "test": "pro-MMP9 secretion by LPS-challenged J774 macrophages incubated with hydrogels", "type": "cell-based, murine", "procedure": "(§1) J774 macrophages were pre-conditioned for 30 min. with the gels and were then challenged with 100 ng/ml LPS. 3T3 cells were not challenged with bacteria. Next, the murine macrophage J774 and murine fibroblast 3T3 cells were incubated with the gels for 16 h at 37° C., 5% CO2. Hereafter, the medium was collected, centrifuged at 14,000 rpm during 20 min to remove particulate material and assayed for the indicated secreted proteins. Results are the mean of two independent experiments and are expressed as percentages of the control experiment.\n(§2) A hydrogel was made by dissolving 2 g Kelset (Na^+—Ca^++ alginate) and 5 g PEG400 in a final volume of 100 ml growth medium [DMEM high glucose, 10% FCS, 4 mM L-Glutamine, antibiotics]. This mixture was further diluted with an additional 100 ml of growth medium to lower the viscosity of the solutions. The final concentration of PEG400 was 2.5%.\n(§3) A hydrogel was made by dissolving 1 g Carbopol (polyacrylate), 5 g PEG400, 2.1 g Arginine and 3 g PCL (cetearyl octanoate) in a total volume of 100 ml growth medium [DMEM(high glucose), 10% FCS, 4 mM L-Glutamine, antibiotics]. This mixture was further diluted with an additional 100 ml of growth medium to lower the viscosity of the solutions. Cultures of murine macrophages J774 were used. The final concentration of PEG400 in contact with the cells was 2.5%. A similar solution without PEG400 was used as control.\n(§4) A hydrogel was made by dissolving 3 g CMC ([…]), and 5 g PEG400 in a final volume of 100 ml growth medium [DMEM(high glucose), 10% FCS/4 mM L-Glutamine, antibiotics]. This mixture was further diluted with an additional 100 ml of growth medium to lower the viscosity of the solutions. Cultures of murine macrophages J774 were used. The final concentration of PEG400 was 2.5%. A similar solution without PEG400 was used as control."}, "HaCat keratinocytes": {"system": "HaCat keratinocytes", "test": "Toxicity of PEG on cultivated cells (tetrazolium cell survival)", "type": "cell-based", "procedure": "(§5) Cells were grown in DMEM (3T3 fibroblasts and HaCat keratinocytes) or in RPMI1640 (J774 macrophages). Both media were supplemented with heat inactivated 10% Fetal Calf Serum (Sigma), 2 mM L-Glutamine (Sigma) and antibiotics (Sigma). Cells were seeded subconfluent in 96 well plates and contacted for about 16 hours with PEG test compounds which were dissolved in growth media (expressed as w/w end concentrations).\n(§6) Cell survival was assayed by the conversion of soluble tetrazolium salt into an insoluble and pink colored formazan (absorption measured at 570 nm).\n(§7) Cells were incubated overnight with varying concentrations of PEG 400 (0.31-10% w/w). From 5% onwards, PEG has a cytotoxic effect on in vitro cultivated cells, especially on keratinocytes (FIG. 1A) and on macrophages (FIG. 1B), and to a lesser extent on fibroblasts (FIG. 1C)."}, "3T3 fibroblasts": {"system": "3T3 fibroblasts", "test": "Toxicity of PEG on cultivated cells (tetrazolium cell survival)", "type": "cell-based, murine", "procedure": "as §5, §6, §7"}, "J774 macrophages": {"system": "J774 macrophages", "test": "Toxicity of PEG on cultivated cells (tetrazolium cell survival)", "type": "cell-based, murine", "procedure": "as §5, §6, §7"}, "IL-6 [3]": {"system": "IL-6", "test": "IL-6 secretion by LPS-challenged J774 macrophages incubated with hydrogels", "type": "cell-based, murine", "procedure": "as §1, §2, §3, §4"}, "IL-6 [4]": {"system": "IL-6", "test": "IL-6 expression in 3T3 cells incubated with hydrogel", "type": "cell-based, murine", "settings": "Na+-Ca++ alginate gel with 2.5% PEG400 vs gel without PEG400, 16 h", "procedure": "as §1, §2\n(§8) A similar solution without PEG400 was used as control."}, "Collagen type III": {"system": "Collagen type III", "test": "Collagen III expression by 3T3 fibroblast cells", "type": "cell-based, murine", "settings": "3T3 cells", "source_text": "This increase of collagen III expression was significant compared to control."}, "VEGF [5]": {"system": "VEGF", "test": "VEGF expression in 3T3 cells incubated with hydrogel", "type": "cell-based, murine", "settings": "Na+-Ca++ alginate gel with 2.5% PEG400 vs gel without PEG400, 16 h", "procedure": "as §1, §2, §8"}, "VEGF [6]": {"system": "VEGF", "test": "VEGF expression by vascular endothelial cells (SVEC)", "type": "cell-based", "source_text": "(§9) The expression of VEGF upon administration of PEG and/or other humectants was investigated on vascular endothelial cells (SVEC) and on fibroblast cells (3T3). The beneficial role of VEGF expression in the healing of ischemic wounds is described in Corrall et al. (1999) Arch. Surg. 134, 200-205."}, "VEGF [7]": {"system": "VEGF", "test": "VEGF expression by fibroblast cells (3T3), comparison of humectants", "type": "cell-based, murine", "settings": "3T3 fibroblast cells", "source_text": "as §9"}, "[8]": {"settings": "J774, alginate gel, 2.5% PEG400, 100 ng/ml LPS"}, "[9]": {"settings": "J774, carboxymethylcellulose gel, 2.5% PEG400, 100 ng/ml LPS"}, "[10]": {"settings": "J774, polyacrylate (Carbopol) gel, 2.5% PEG400, LPS"}, "[11]": {"settings": "overnight incubation, PEG 400 0.31-10% w/w"}}}
{"substance": "PEG 600 diacid", "values": [{"measurement": "pro-MMP9 expression", "setting": "proMMP-9; J774 cells challenged with heat inactivated E. coli after 30 min pre-incubation", "result": "lowered"}, {"measurement": "VEGF expression", "setting": "VEGF [1]; 3T3 fibroblasts, increasing amounts 0.078-0.625% w/w", "result": "influenced"}, {"measurement": "lowering of IL-6 expression", "setting": "IL-6 [2]", "result": "about 30%"}]}
{"substance": "Polyethylene glycol [PEG 400]", "values": [{"measurement": "secretion of pro-MMP9", "setting": "pro-MMP9; [8]", "result": "reduced"}, {"measurement": "expression of pro-MMP9", "setting": "pro-MMP9; [9]", "result": "less reduced"}, {"measurement": "expression of pro-MMP9", "setting": "pro-MMP9; [10]", "result": "reduced"}, {"measurement": "secretion of proMMP9", "setting": "proMMP-9; J774, PEG 400 concentration from about up to roughly 1% (w/w), 30 min pre-conditioning, heat inactivated E. coli, overnight", "result": "significantly reduced"}, {"measurement": "PEG400 concentration of maximum VEGF expression", "setting": "VEGF [1]; fibroblasts, 0.31-10% w/w tested", "result": 5, "unit": "%"}, {"measurement": "VEGF expression", "setting": "VEGF [1]; fibroblasts, PEG400 concentrations between 2% and 10%", "result": "increases"}, {"measurement": "effect on cell survival", "setting": "HaCat keratinocytes; keratinocytes, concentrations below 5%", "result": "no detrimental effect"}, {"measurement": "concentration from which PEG has a cytotoxic effect", "setting": "HaCat keratinocytes; keratinocytes, overnight incubation, PEG 400 0.31-10% w/w", "result": "≥ 5", "unit": "%"}, {"measurement": "concentration from which PEG400 is cytotoxic (summary statement)", "setting": "HaCat keratinocytes; summary of Example 1, cell type not specified", "result": "≥ 5 % (w/w)"}, {"measurement": "effect on cell survival", "setting": "3T3 fibroblasts; concentrations below 5%", "result": "no detrimental effect"}, {"measurement": "concentration from which PEG has a cytotoxic effect", "setting": "3T3 fibroblasts; [11]", "result": "≥ 5", "unit": "%"}, {"measurement": "effect on cell survival", "setting": "J774 macrophages; concentrations below 5%", "result": "no detrimental effect"}, {"measurement": "concentration from which PEG has a cytotoxic effect", "setting": "J774 macrophages; [11]", "result": "≥ 5", "unit": "%"}, {"measurement": "secretion of IL-6", "setting": "IL-6 [3]; [8]", "result": "reduced"}, {"measurement": "expression of IL-6", "setting": "IL-6 [3]; [9]", "result": "clearly reduced"}, {"measurement": "expression of IL-6", "setting": "IL-6 [3]; [10]", "result": "reduced"}, {"measurement": "IL-6 expression", "setting": "IL-6 [4]", "result": "decreased"}, {"measurement": "collagen III expression compared with 4% propylene glycol and 4% glycerol", "setting": "Collagen type III", "result": "highest expression"}, {"measurement": "increase of collagen III expression compared to control", "setting": "Collagen type III; 4%", "result": "significant"}, {"measurement": "VEGF expression", "setting": "VEGF [5]", "result": "slightly increased"}, {"measurement": "VEGF expression compared with 4% propylene glycol and 4% glycerol", "setting": "VEGF [6]", "result": "highest expression"}, {"measurement": "VEGF expression compared with 4% propylene glycol and 4% glycerol", "setting": "VEGF [7]", "result": "highest expression"}]}
